From patent US20250333702A1, “CELLS WITH INCREASED IMMUNO-REGULATORY PROPERTIES AND METHODS FOR THEIR USE AND MANUFACTURE” (The Children's Medical Center Corporation, priority 2015, published 2025)
Structures can show the parent of a compound that is named as a salt.

Columns and labels:
Format in all cases: cell-based
PD-L1 (CD274) = experiment: PD-L1 mRNA level (RT-qPCR) in CD34+ cells after ex vivo treatment with agent; details: mRNA by RT-qPCR, normalized against untreated cells; human CD34+ cells, 24 hours at 37° C.
Description: (§1) Human CD34+ stem and progenitor cells isolated from mobilized peripheral blood from three donors were ex vivo treated in […]® (StemCell Technologies) for 24 hours at 37° C. with one or more exogenous agents. Following cell treatments, gross mRNA levels were normalized against gross mRNA levels from the untreated cells […]. Levels of PD-L1 or IDO-1 mRNA were quantified from PICOPURE® isolated mRNA (Life Technologies) using an Assay on Demand TAQMAN® RT-qPCR assay (Life Technologies).

[1] = test system: Human CD34+ stem and progenitor cells; experiment: Viability of CD34+ cells after ex vivo treatment with agent; parameters: concentration or dose not given beside the values; details: human CD34+ cells from mobilized peripheral blood, 24 hours at 37° C. with agent
IDO-1 = IDO-1 mRNA level (RT-qPCR) in CD34+ cells after ex vivo treatment with agent; details: mRNA by RT-qPCR, normalized against untreated cells; human CD34+ cells, 24 hours at 37° C.
Description: as §1

Row | Molecule | PD-L1 fold change (PD-L1 (CD274)) | % Viability ([1]; Table 1) | IDO-1 fold change (IDO-1) | % Viability ([1]; Table 2)
1 | CC1(C)O[C@@H]2C[C@H]3[C@@H]4C[C@H](F)C5=CC(=O)C=C[C@]5(C)[C@@]4(F)[C@@H](O)C[C@]3(C)[C@]2(C(=O)CO)O1 [Fluocinolone acetonide] | 10.58 fold | 82.9% | – | –
2 | C[C@@H]1C[C@H]2[C@@H]3C[C@H](F)C4=CC(=O)C=C[C@]4(C)[C@@]3(Cl)[C@@H](O)C[C@]2(C)[C@H]1C(=O)COC(=O)C(C)(C)C [Clocortolone pivalate] | 8.64 fold | 84.9% | – | –
3 | C=CC(N)CCC(=O)O (stereo not drawn) [Vigabatrin] | 16.76 fold | 67% | – | –
4 | Nc1ccn([C@@H]2O[C@H](CO)[C@@H](O)C2(F)F)c(=O)n1 [Gemcitabine] | – | – | 30.13 fold | 81.4%
5 | CN[C@@H]1[C@H](O[C@H]2[C@H](O[C@H]3[C@H](O)[C@@H](O)[C@H](NC(=N)N)[C@@H](O)[C@@H]3NC(=N)N)O[C@@H](C)[C@]2(O)CO)O[C@@H](CO)[C@H](O)[C@H]1O [Dihydrostreptomycin sulfate] | – | – | 6.19 fold | 84.5%
6 | CCC(=O)O[C@]1(C(=O)CCl)[C@@H](C)C[C@H]2[C@@H]3CCC4=CC(=O)C=C[C@]4(C)[C@@]3(F)[C@@H](O)C[C@@]21C [Clobetasol propionate] | 9.27 fold | 83% | – | –
7 | Nc1ccc(C(=O)O)c(O)c1 [4-aminosalicylic acid] | – | – | 4.07 fold | 85.3%
8 | CN(C)CCC=C1c2ccccc2C=Cc2ccccc21 [Cyclobenzaprine] | – | – | 4.65 fold | 72.7%
9 | Nc1nc(F)nc2c1ncn2[C@@H]1O[C@H](CO)[C@@H](O)[C@@H]1O [Fludarabine] | – | – | 4.22 fold | 82.5%
10 | Tyrphostin AG 835 | 32.57 fold | 61.3% | – | –
11 | C[C@H]1C[C@H]2[C@@H]3CCC4=CC(=O)C=C[C@]4(C)[C@@]3(F)[C@@H](O)C[C@]2(C)[C@@]1(O)C(=O)CO [Betamethasone] | 4.16 fold | 86.8% | – | –
12 | N#Cc1ccc(C(c2ccc(C#N)cc2)n2cncn2)cc1 [Letrozole] | – | – | 4.38 fold | 81.3%
13 | CNC(C)CCC=C(C)C.CNC(C)CCC=C(C)C.O=C(O)[C@@H](O)[C@H](O)[C@H](O)[C@@H](O)C(=O)O [Isometheptene mucate] | – | – | 6.98 fold | 83.7%
14 | CNCCCC1c2ccccc2C=Cc2ccccc21 [Protriptyline] | – | – | 5.74 fold | 79.4%
15 | NC(=O)N/N=C/c1ccc([N+](=O)[O-])o1 [Nitro fural] | 10.28 fold | 87.2% | – | –
16 | Cc1scc2c1N(C(=O)CN1CCN(C)CC1)c1ccccc1NC2=O [Telenzepine] | – | – | 4.82 fold | 88.9%
17 | OCCN1CCN(CCCN2c3ccccc3Sc3ccc(C(F)(F)F)cc32)CC1 [Fluphenazine] | 7.58 fold | 86% | 14.19 fold | 86%
